Source: US4634766A, “1,4-diaza-phenothiazines” (Merck Frosst Canada, Inc., priority 1984, dated 1987)
≈ marks a conversion by molar mass, not a printed value.

Tests used:
[1] = test system: LTB4 formation in rat polymorphonuclear leukocytes; experiment: Rat Polymorphonuclear Leukocyte (P.M.N.) Assay: inhibition of LTB4 formation; assay type: cell-based; conditions: A-23187 stimulated rat PMN, LTB4 bioassay, read-out: PMN I50
Experimental: Rats under ether anesthesia were injected (i.p.) with 8 ml of a suspension of sodium caseinate (6 grams in ca. 50 ml water). After 15-24 hours the rats were sacrificed (CO2) and the cells from the peritoneal cavity were recovered by lavage with 20 ml of buffer (Eagles MEM containing 30 mM HEPES adjusted to pH 7.4 with NaOH). The cells were pelleted (350×g,5 min.), resuspended in buffer with vigorous shaking, filtered through lens paper, recentrifuged and finally suspended in buffer at a concentration of […]. A 500 μl aliquot of PMN suspension and test compound were preincubated for 2 minutes at 37° C., followed by the addition of 10 μM A-23187. The suspension was stirred for an additional 4 minutes then bioassayed for LTB4 content by adding an aliquot to a second 500 μl portion of the PMN at 37° C. The LTB4 produced in the first incubation caused aggregation of the second PMN, which was measured as a change in light transmission. The size of the assay aliquot was chosen to give a submaximal transmission change (usually -70%) for the untreated control. The percentage inhibition of LTB4 formation was calculated from the ratio of transmission change in the sample to the transmission change in the compound-free control.

guinea pig trachea = experiment: Antigen Challenge in vitro Assay: contraction of sensitized tracheal chains by egg albumin; assay type: cell-based; conditions: Cavia porcellus; for inhibition at 3 µg/mL: 3 μg/ml
Experimental: Male guinea pigs weighing 300-350 g were sensitized by injecting (I.P.) 0.5 ml of a suspension containing 0.4 mg of egg albumin (Ovalbumin, Grade V, Sigma Chemical Co.) and 4.0 g aluminum hydroxide in 19.6 ml of saline. Two weeks were permitted for sensitization to occur.
Three sensitized guinea pigs were stunned and exsanguinated. The tracheas were removed, freed of adhering tissue and divided longitudinally by cutting through the cartilaginous tissue directly opposite the muscle insertion. Each opened trachea was then transected between every second cartilage. Four of the cut sections were tied together, end to end, in a series with No. 7 silk thread ensuring that the tracheal muscles were all in the same vertical plane. Thus, each chain consisted of tissue from three different animals.
The chain so formed was then suspended under 1 g of tension (by silk ties at each end) in a 20 ml organ bath containing 10 ml of modified^1 Krebs-Henseleit buffer solution gassed with 95% O2 and 5% CO2 at 37° C. Mepyramine (0.55 μg/ml) and indomethacin (2.67 μg/ml) were added to the buffer to avoid the contribution of histamine receptors and cyclooxygenase products to the contraction. To record responses one end of the tracheal chain was attached to a Gould-Statham UC-2 force displacement transducer which was connected to a Beckman Type R-dynograph.The preparations were allowed to equilibrate for one hour during which time the tissues were automatically washed (10 ml volume displacement) every 6 minutes.
After the equilibration period the tissues were primed with methacholine (3 μg/ml; 1.5×10^-5 M), washed and allowed to recover to baseline. The tissues were treated again with a second dose of methacholine, washed, allowed to return to baseline and washed for an additional hour.
Two chains were used as a control. These were incubated in a concentration of egg albumin sufficient to induce an average contraction of 50-80% of the methacholine response.
Each compound to be tested was added to two other baths (at a final concentration in each bath of 10 μg/ml) 15 minutes prior to challenging the fresh chains with egg albumin.
The response of the challenged tissue was expressed as a percentage of the methacholine maximum. The percentage inhibition for each compound was then calculated. Compounds which at 10 μg/ml (final conc.) inhibited the egg albumin response by 50% or more were retested at a lower concentration.

asthmatic rats = experiment: Asthmatic Rat Assay: duration of dyspnoea after egg albumin aerosol challenge; assay type: in vivo; conditions: p.o.
From the text: Rats were obtained from an inbred line of asthmatic rats. Both female and male rats from 200 to 300 g were used.
Egg albumin (EA), grade V, crystallized and lyophilized, was obtained from Sigma Chemical Co., St. Louis. Bordetella pertussis vaccine, containing 30×10^9 killed bacteria per ml was obtained from the Institut Armand-Frappier, Laval des Rapides, Quebec. Aluminum hydroxide was obtained from the Regis Chemical Company, Chicago.
The challenge and subsequent respiratory recordings were carried out in a clear plastic box with internal dimensions 10×6×4 inches. The top of the box was removable; in use, it was held firmly in place by four clamps and an airtight seal was maintained by a soft rubber gasket. […] A Fleisch No. 0000 pneumotachograph was inserted into one end of the box and coupled to a Grass volumetric pressure transducer (PT5-A) which was then connected to a Beckman Type R Dynograph through appropriate couplers. While aerosolizing the antigen, the outlets were open and the pneumotachograph was isolated from the chamber. The outlets were closed and the pneumotachograph and the chamber were connected during the recording or the respiratory patterns. For challenge, 2 ml of a 3% solution of antigen in saline was placed into each nebulizer and the aerosol was generated with air from a small Potter diaphragm pump operating at 10 psi and a flow of 8 liters/minute.
Rats were sensitized by injecting (s.c.) 1 ml of a suspension containing 1 mg EA and 200 mg aluminum hydroxide in saline. Simultaneously, they received an intraperitoneal (i.p.) injection of 0.5 ml of B. pertussis vaccine. They were used between days 14 and 18 postsensitization. In order to eliminate the serotonin component of the response, rats were pretreated intravenously 5 minutes prior to aerosol challenge with […] methylserzide. Rats were then exposed to an aerosol of 3% EA in saline for exactly 1 minute, then their respiratory profiles were recorded for a further 25-30 minutes. The duration of continuous dyspnoea was measured from the respiratory recordings.
Compounds were generally administered either intraperitoneally 1 hour prior to challenge or orally 11/2 hours prior to challenge. They were either dissolved in dimethylsulfoxide or suspended in 0.1% methocel and 0.5% Tween 80. The volume injected was 2 ml/kg (intraperitoneally) or 10 ml/kg (orally (p.o.)). Prior to oral treatment rats were starved overnight. Their activity was determined in terms of their ability to decrease the duration of symptoms of dyspnoea in comparison with a group of vehicle-treated controls. Usually, a compound was evaluated at a series of doses and an ED50 was determined. This was defined as the dose (mg/kg) which would inhibit the duration of symptoms by 50%.

[2] = test system: PAF-induced hyperalgesia in the rat paw; experiment: PAF-Induced Hyperalgesia Assay; assay type: in vivo, rat (Sprague-Dawley); conditions: 10 mg/kg, i.p.

| IC50 [1] [µg/mL] | SMILES | inhibition at 3 µg/mL (guinea pig trachea) [%] | other results |
| --- | --- | --- | --- |
| 1 to 5 (≈ 4.65 to 23.2 µM) | CN1c2ccccc2Sc2nccnc21 | – | – |
| 0.05 to 0.5 (≈ 0.216 to 2.16 µM) | COc1ccc2c(c1)Sc1nccnc1N2 | 42 | – |
| – | CC(=O)N1c2ccccc2Sc2nccnc21 | 14 | – |
| – | CCOC(=O)CN1c2ccccc2Sc2nccnc21 | 22 | – |
| 5 (≈ 17.9 µM) | COc1cc2c(cc1Cl)N(C)c1nccnc1S2 | – | – |
| 1 (≈ 3.76 µM) | COc1cc2c(cc1Cl)Nc1nccnc1S2 | – | – |
| 0.5 to 1 (≈ 2.7 to 5.4 µM) | c1ccc2c(c1)Nc1nccnc1O2 | 35 | – |
| – | COc1ccc2c(c1)Sc1nccnc1N2C | – | Asthmatic Rat % Inhibition (asthmatic rats; 3 mg/kg): 43% |
| – | COc1ccc2c(c1)[S+]([O-])c1nccnc1N2C (centres unmarked) | – | Asthmatic Rat % Inhibition (asthmatic rats; 3 mg/kg): 25% |
| 5 (≈ 24.8 µM) | c1ccc2c(c1)Nc1nccnc1S2 [drawing 17] | – | inhibition at 10 µg/mL (guinea pig trachea; 10 μg/ml): 85% |
| 0.2 (≈ 0.753 µM) | CN1c2cc(Cl)c(O)cc2Sc2nccnc21 [drawing 18] | – | – |
| 1 to 5 (≈ 4.32 to 21.6 µM) | CN1c2ccc(O)cc2Sc2nccnc21 [drawing 21] | 71 | – |
| – | c1ccc2c(c1)Nc1nccnc1S2 [drawing 27] | – | Asthmatic Rat % Inhibition (asthmatic rats; 5 mg/kg): 30%; PAF % Inhibition [2]: 70% |
| – | CN1c2cc(Cl)c(O)cc2Sc2nccnc21 [drawing 28] | – | Asthmatic Rat % Inhibition (asthmatic rats; 5 mg/kg): 47% |
| – | CN1c2ccc(O)cc2Sc2nccnc21 [drawing 30] | – | Asthmatic Rat % Inhibition (asthmatic rats; 3 mg/kg): 39% |
